Measured values published in US20240299414A1, “SUBCUTANEOUS OR INTRAMUSCULAR INJECTION FORMULATIONS OF ILOPROST” (EICOS SCIENCES, INC., priority 2020, published 2024).
Read-outs that look alike come from different tables or passages of the source.

Assays:
[1] = tested on: symptomatic Raynaud's Phenomenon attacks in subjects with Systemic Sclerosis; experiment: Multicenter double-blind randomized placebo-controlled study of intravenous iloprost, efficacy by ePRO diary; type: in vivo, human; conditions: for Subgroup comparison of prior vs after, LS mean difference in change (SE) of treatment difference: randomized prior to vs after 3 Jun. 2019
Source text: This was a multicenter, double-blind, randomized, placebo-controlled study to provide an initial evaluation of the effect of iloprost on the symptomatic relief of RP attacks in subjects with SSc. As a pilot study, it was not powered to provide a definitive estimate of the effect of iloprost. Importantly, this study tested the feasibility of collecting the study endpoints and logistics of study operations that included, among other things, an electronic patient-reported outcomes (ePRO) diary for the evaluation of subject response to the treatment, as well as the infusion workflow for this multiday treatment. Subjects were allowed to continue receiving stable standard of care therapies for the management of symptomatic RP (e.g., calcium channel blockers, angiotensin-converting enzyme inhibitors, statins, fluoxetine, and low-dose acetylsalicylic acid) or may have participated without the use of background standard of care therapies. The study consisted of an up to 30-day screening period during which subjects completed a daily ePRO diary to record information regarding all symptomatic RP attacks (e.g., severity of symptoms, duration, and hand function). […] The baseline ePRO diary completion period may have been extended beyond 10 days in order to accommodate the preferred Monday through Friday dosing schedule. The ePRO symptomatic RP attack data from this time period were used for the calculation of the baseline frequency of symptomatic RP attacks. […] Randomization was stratified based on the use of phosphodiesterase inhibitors at screening. Study drug administration began on Day 1, and subjects received study drug for 5 consecutive days (e.g., Monday through Friday) as an IV infusion over 6 hours each day via a peripheral line (NovaCath™ Integrated IV Catheter System) or a peripherally inserted central catheter using an infusion pump. […] On Day 1, study drug was initiated at a starting dose of 0.5 ng/kg/min, and dose increases occurred every 30 minutes (±5 minutes) in increments of 0.5 ng/kg/min up to 2.0 ng/kg/min or the individual tolerated dose. If dose-limiting adverse events (e.g., headache, flushing, jaw pain, myalgia, nausea, or vomiting) occurred that could not be tolerated by the subject, or if the subject experienced symptomatic hypotension, then the dose was reduced in a step-wise manner by 0.5 ng/kg/min every 30 minutes (±5 minutes) until a tolerated dose was determined or the infusion was stopped until the symptoms resolved at which point the study drug was reinitiated at a previously tolerated dose. If symptomatic hypotension or a dose-limiting adverse event occurred during administration of iloprost at the starting dose (i.e., 0.5 ng/kg/min), the infusion was reduced to 0.25 ng/kg/min. […] Blood pressure and heart rate were monitored 15 minutes (±5 minutes) prior to and after all dose changes. The maximum tolerated dose was maintained for the remaining 6-hour daily period. At the end of the 6-hour infusion period, the dose was stopped. Subjects were to be monitored for up to 1 hour after completion of study drug infusion (i.e., vital signs were obtained 15 minutes [+5 minutes] and 1 hour [+15 minutes] after completion of the infusion). […] Vital signs were measured prior to study drug administration and at 15 minutes (±5 minutes) prior to and after all dose changes during the infusion. Additionally, vital signs were monitored at 15 minutes (±5 minutes) and 1 hour (±15 minutes) after completion of the 6-hour infusion. Subjects were contacted via telephone on Day 8 to ensure they resumed completion of the daily ePRO diary; subjects completed the ePRO diary from Day 8 through Day 21. On Day 22, subjects returned to the clinic for post-treatment evaluations. A follow-up visit occurred 30 days after the last administration of study drug (Day 35). Symptomatic Raynaud's Phenomenon attacks: […] The attack was considered over when the color changed back to pre-attack color (normal) and the symptoms returned to the subject's pre-attack level. […]

[2] = cited from earlier work
[3] = baseline to double-blind endpoint
[4] = subgroup randomized after 3 Jun. 2019, N = 9
[5] = subgroup randomized prior to 3 Jun. 2019, n = 8

CC#CCC(C)[C@H](O)/C=C/[C@@H]1[C@H]2C/C(=C/CCCC(=O)O)C[C@H]2C[C@H]1O (stereo partly drawn) [Iloprost, (5E)-5-[(3aS,4R,5R,6aS)-5-hydroxy-4-[(E,3S)-3-hydroxy-4-methyloct-1-en-6-ynyl]-3,3a,4,5,6,6a-hexahydro-1H-pentalen-2-ylidene]pentanoic acid]
Average overall severity of symptomatic RP attacks, LS mean difference in change vs placebo (SE) ([1]; 11-point NRS): −0.47 (0.604)
Average overall severity of symptomatic RP attacks, Double-blind endpoint, Mean (SD) ([1]; 11-point NRS, Days 8 to 21, N = 17): 3.39 (2.169)
Change from baseline in average overall severity of symptomatic RP attacks, LS mean (SE) ([1]; 11-point NRS, N = 17): −2.12 (0.439)
Average overall severity of symptomatic RP attacks, Baseline, Mean (SD) ([1]; 11-point NRS, before treatment, N = 17): 5.30 (1.818)
Change from baseline in weekly frequency of symptomatic RP attacks, LS mean (SE) ([1]; ANCOVA, baseline to double-blind endpoint, N = 17): −15.09 (2.961)
Weekly frequency of symptomatic RP attacks, LS mean difference in change vs placebo (SE) ([1]; ANCOVA, iloprost vs placebo, N = 17 per group): −0.77 (4.047)
Average weekly duration of symptomatic RP attacks, Double-blind endpoint, Mean (SD) ([1]; Days 8 to 21, N = 17): 345.82 (402.713) minutes
Weekly frequency of symptomatic RP attacks, Double-blind endpoint, Mean (SD) ([1]; Days 8 to 21 after IV infusion 6 h/day for 5 days, up to 2.0 ng/kg/min, N = 17): 23.57 (14.578)
Change from baseline in average weekly duration of symptomatic RP attacks, LS mean (SE) ([1]; N = 17): −267.49 (78.273) minutes
Difference in change in weekly frequency of symptomatic RP attacks compared to placebo, significance ([1]; all analytical measures): not statistically significant
Weekly frequency of symptomatic RP attacks, Baseline, Mean (SD) ([1]; baseline ePRO diary period (10 to 25 days) before treatment, N = 17): 37.05 (18.643)
Change in average Raynaud's Condition Score, difference compared to placebo [1, 3]: not statistically significant
Change in average worst symptoms (pain, numbness, tingling, discomfort) associated with symptomatic RP, difference compared to placebo [1, 3]: not statistically significant
Subject assessment of overall improvement using PGI-S and PGI-C, difference compared to placebo [1, 3]: not statistically significant
Average weekly duration of symptomatic RP attacks, Baseline, Mean (SD) ([1]; before treatment, N = 17): 586.97 (584.577) minutes
Average weekly duration of symptomatic RP attacks, LS mean difference in change vs placebo (SE) ([1]; iloprost vs placebo): −83.89 (107.728) minutes
Subgroup comparison of prior vs after, LS mean difference in change (SE) of treatment difference [1]: −6.91 (8.121)
Subgroup comparison of prior vs after, LS mean difference in change (SE) of treatment difference ([1]; listed as iloprost): -6.91 (8.121)
Weekly frequency of symptomatic RP attacks, LS mean difference in change vs placebo (SE) ([1]; subgroup randomized after 3 Jun. 2019): 2.04 (5.453)
Change from baseline in weekly frequency of symptomatic RP attacks, LS mean (SE) [1, 4]: −15.38 (4.082)
Weekly frequency of symptomatic RP attacks, Double-blind endpoint, Mean (SD) [1, 4]: 23.73 (17.337)
Weekly frequency of symptomatic RP attacks, Baseline, Mean (SD) ([1]; subgroup randomized after 3 Jun. 2019, N = 9, before treatment): 37.23 (19.269)
Weekly frequency of symptomatic RP attacks, LS mean difference in change vs placebo (SE) ([1]; subgroup randomized prior to 3 Jun. 2019): −4.87 (6.074)
Weekly frequency of symptomatic RP attacks, LS mean difference in change vs placebo (SE) ([1]; subgroup randomized prior to 3 Jun. 2019, listed as iloprost): -4.87 (6.074)
Change from baseline in weekly frequency of symptomatic RP attacks, LS mean (SE) [1, 5]: −14.83 (4.180)
Weekly frequency of symptomatic RP attacks, Double-blind endpoint, Mean (SD) [1, 5]: 23.39 (11.923)
Weekly frequency of symptomatic RP attacks, Baseline, Mean (SD) ([1]; subgroup randomized prior to 3 Jun. 2019, n = 8, before treatment): 36.85 (19.235)
non-compartmental clearance ([2]; 1 ng/kg/min for 45 minutes): 21 mL/min/kg
non-compartmental clearance ([2]; 2 ng/kg/min for 4 hours): 24 mL/min/kg
non-compartmental clearance ([2]; 3 ng/kg/min for 45 minutes): 20.6 mL/min/kg
